A word on the IC50: it is the midpoint of a concentration-inhibition curve. Lower therefore signals inhibition by little substance.

Experiment [1] is filed under the species Cavia porcellus. Kind of experiment: Evaluated for the muscarinic potency in guinea pig ileum contraction model. Format: functional.
The species named for experiment [2] is Rattus norvegicus. Kind of experiment: Evaluated for the muscarinic potency in rat hippocampal slice preparations. It is filed as functional, Hippocampus.
The species entered for experiment [3] is Cavia porcellus. Kind of experiment: Evaluated for the percent efficacy in guinea pig ileum contraction model. It is filed as functional.
The species named for experiment [4] is Rattus norvegicus. As to the kind of experiment: Evaluated for the percentage efficacy in rat hippocampal slice preparations. Format: functional, Hippocampus.
For experiment [5], the species on record is Rattus norvegicus. As to the kind of experiment: Evaluated for the muscarinic potency in depolarizations of rat superior cervical ganglion. It is filed as functional.
For experiment [6], the species on record is Rattus norvegicus. As to the kind of experiment: Evaluated for the percentage efficacy in depolarizations of rat superior cervical ganglion. Format: functional.
Experiment [7] addresses T1, Muscarinic acetylcholine receptor M1 (Rattus norvegicus, UniProt P08482).
T1 sequence (P08482 whole entry): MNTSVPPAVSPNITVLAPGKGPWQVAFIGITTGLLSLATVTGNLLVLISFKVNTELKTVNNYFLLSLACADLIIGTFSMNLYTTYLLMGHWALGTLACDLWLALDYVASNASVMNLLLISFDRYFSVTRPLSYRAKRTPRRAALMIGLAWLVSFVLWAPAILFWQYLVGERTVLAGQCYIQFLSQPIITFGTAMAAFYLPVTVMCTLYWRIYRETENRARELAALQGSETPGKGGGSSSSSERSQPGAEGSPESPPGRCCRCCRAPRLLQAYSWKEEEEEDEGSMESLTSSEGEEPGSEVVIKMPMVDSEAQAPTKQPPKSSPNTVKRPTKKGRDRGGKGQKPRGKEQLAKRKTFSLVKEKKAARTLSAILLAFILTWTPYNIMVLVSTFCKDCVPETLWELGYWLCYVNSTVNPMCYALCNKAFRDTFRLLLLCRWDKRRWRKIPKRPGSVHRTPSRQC
As to the kind of experiment: Evaluated for inhibition of binding of [3H]pirenzepine to homogenized rat cerebral cortex membranes. It is filed as cell membranes, Membrane.

For experiment [8], the species on record is Rattus norvegicus. Kind of experiment: Evaluated for the percentage efficacy in rat superior cervical ganglion. Format: functional.
For experiment [9], the species on record is Rattus norvegicus. As to the kind of experiment: Evaluated for the muscarinic potency in rat superior cervical ganglion. It is filed as functional.

`COC(=O)C1=CCCN(C)C1` [ARECOLINE]: the figures for the pD2 in the experiment listed under Cavia porcellus [1], in the experiment filed under Rattus norvegicus [2] and in the experiment filed under Rattus norvegicus [5] were 6.5, 6.1 and 6.6, respectively. The figures for the Efficacy in the experiment filed under Cavia porcellus [3], in the experiment listed under Rattus norvegicus [4] and in the experiment listed under Rattus norvegicus [6] were 100%, 100% and 80%, respectively.
With `COC(=O)C1CC2CC1N(C)C2` (racemic), the values for the pD2 in the experiment listed under Cavia porcellus [1], in the experiment listed under Rattus norvegicus [2] and in the experiment filed under Rattus norvegicus [5] were 4.2, 5.4 and 5, respectively. Further, the half-inhibitory concentration (IC50) in experiment [7] is 2820 nM. Further, the Efficacy in the experiment filed under Cavia porcellus [3] came to 58%; in the experiment listed under Rattus norvegicus [4], 39%; in the experiment listed under Rattus norvegicus [5] it was 82%.
For `COC(=O)[C@@H]1C[C@@H]2C[C@H]1N(C)C2`, the pD2 in the experiment listed under Cavia porcellus [1] was below 4; in the experiment filed under Rattus norvegicus [2] it was 5.9; in the experiment filed under Rattus norvegicus [5] it was 4.4. In [7], the IC50 is 3890 nM. The Efficacy in the experiment filed under Rattus norvegicus [4] stood at 33%; in the experiment filed under Rattus norvegicus [5] it was 70%.
On to `COC(=O)[C@@H]1C[C@H]2CN[C@@H]1C2`, for which the pD2 is given as 6 in the experiment listed under Cavia porcellus [1], 6 in the experiment listed under Rattus norvegicus [2] and 6.7 in the experiment filed under Rattus norvegicus [5]. The compound further had an IC50 in [7] of 1410 nM. Moreover, the Efficacy in the experiment listed under Cavia porcellus [3] came to 120%; in the experiment listed under Rattus norvegicus [4], 120%; in the experiment listed under Rattus norvegicus [5], 90%.
For `COC(=O)C1CC2CNC1C2` (racemic), the pD2 worked out at 6.2 in the experiment listed under Cavia porcellus [1], 5.5 in the experiment listed under Rattus norvegicus [2] and 6.3 in the experiment filed under Rattus norvegicus [5]. The IC50 in [7] was 1950 nM. Further, the Efficacy in the experiment listed under Cavia porcellus [3] is 91%; in the experiment listed under Rattus norvegicus [4] it was 103%; in the experiment listed under Rattus norvegicus [5], 57%.
Regarding `COC(=O)[C@H]1C[C@H]2C[C@@H]1N(C)C2`, the pD2 in the experiment filed under Cavia porcellus [1] is given as 4.9; in the experiment listed under Rattus norvegicus [2] it was below 4; in the experiment listed under Rattus norvegicus [9], 5.9. The IC50 in experiment [7] is 1910 nM. In addition, the figures for the Efficacy in the experiment listed under Rattus norvegicus [8] and in the experiment filed under Cavia porcellus [3] were 71% and 68%, respectively.
Turning to `COC(=O)[C@H]1C[C@@H]2CN[C@H]1C2`, the pD2 in the experiment filed under Cavia porcellus [1] is 5.2; in the experiment listed under Rattus norvegicus [2], below 4; in the experiment listed under Rattus norvegicus [5] it was 5.2. Besides, the IC50 in [7] is 2570 nM. Besides, the Efficacy in the experiment listed under Cavia porcellus [3] is 94%; in the experiment listed under Rattus norvegicus [5] it was 47%.
